How the values were obtained:
Type in all cases: cell-based, human
STMN2 cryptic exon = experiment: RT-PCR detection of transcripts containing the STMN2 cryptic exon in hMNs treated with proteasome inhibitors
Protocol: It was then asked if cryptic exon inclusion could be contributing to decreased STMN2 levels in hMNs after proteasome inhibition. To accomplish this goal, an RT-PCR assay was developed to detect transcripts containing the cryptic exon (FIG. 5F). […] Total RNA was isolated from neurons using RNeasy Mini Kit (Qiagen) according to manufacturer's instructions. A total of 300-1000 ng of total RNA was used to synthesize cDNA by reverse transcription according to the iSCRIPT kit (Bio-rad). RT-PCR was then performed using one cryptic exon-specific primer and then analyzed using the Agilent 2200 Tapestation.

STMN2 transcript = experiment: qRT-PCR of truncated (cryptic) and full-length STMN2 RNA in patient's motor neurons treated with siTARDBP and ASOs; details: for STMN2 in TDP-43 depleted neurons: FIG. 93; for cry STMN2 in TDP-43 depleted neurons: FIG. 94; for cryptic STMN2 RNA levels (cryptic splicing) / full-length STMN2 RNA levels: patient's motor neurons treated with siTARDBP, ASO 30 nM to 0.03 nM, qRT-PCR normalized using RNA18S5, relative to NTC
Protocol: In total, 51 ASOs were screened in the patient's motor neurons for their ability to (1) suppress the generation of truncated STMN2 transcript as well as (2) restore the full-length STMN2 transcript.
In the first experiment the patient's motor neurons were treated with siTARDBP, the patient's motor neurons were then cultured with the various ASOs over a range of concentrations (ranging from 30 nM to 0.03 nM) before extracting total RNA. Extracted RNA was used to synthesize cDNA by reverse transcription. qRT-PCR was used to assess levels for both truncated and full-length STMN2 RNAs normalized using RNA18S5 expression.

STMN2 protein = experiment: immunoblot of STMN2 protein levels in patient's motor neurons following reduction of TDP-43 by siRNA; details: patient's motor neurons after TDP-43 reduction by siRNA; compared to NTC / siRNA controls
Protocol: For analysis of TDP-43 and STMN2 protein expression levels, d10 MNs were lysed in RIPA buffer (150 mM Sodium Chloride; 1% Triton X-100; 0.5% sodium deoxycholate; 0.1% SDS; 50 mM Tris pH 8.0) containing protease and phosphatase inhibitors (Roche) for 20 min on ice, and centrifuged at high speed. 200 μL of RIPA buffer per well of 24-well culture were routinely used, which yielded ˜20 μg of total protein as determined by BCA (Thermo Scientific). After two washes with RIPA buffer, insoluble pellets were resuspended in 200 μl of UREA buffer (Bio-Rad). For immunoblot assays 2-3 μg of total protein were separated by SDS-PAGE (BioRad), transferred to PDVF membranes (BioRad) and probed with antibodies against TDP-43 (1:1000, ProteinTech Group), GAPDH (1:1000, Millipore) and STMN2 (1:3000, Novus). Insoluble pellets were loaded based on protein concentration of correspondent RIPA-soluble counterparts. The same PDVF membrane was immunoassayed 2-3 times using Restore™ PLUS Western Blot Stripping Buffer (Thermo Scientific). GAPDH levels were used to normalized each sample, and LiCor software was used to quantitate protein band signal.
After establishing and validating that the STMN2 ASOs could affect transcript levels, it was sought to determine if they could also rescue diminished protein levels observed after TDP-43 reduction. The patient's motor neurons were treated with siRNAs and either a nontargeting ASO (NTC) or one of the lead compounds from the screen (FIG. 90, FIG. 97). […] Unlike the cells treated with the non-targeting control ASO (NTC), restoration of STMN2 to the levels of the siRNA controls for the lead candidates was observed.

patient's motor neurons = experiment: axonal regrowth after axotomy in microfluidic devices, TDP-43 depleted patient's motor neurons; details: for neurite outgrowth deficits following TDP-43 depletion: FIG. 92; for axon extension from the microchannel (regrowth after injury), mean values / axonal regrowth after injury relative to the non-targeting control ASO: patient's motor neurons treated with siTARDBP, 18 hours after axotomy
Protocol: Sorted motor neurons were cultured in standard neuron microfluidic devices (SND150, XONA Microfluidics) mounted on glass coverslips coated with 0.1 mg/ml poly-D-lysine (Sigma-Aldrich) and 5 μg/ml laminin (Invitrogen) at a concentration of around 250,000 neurons/device. Axotomy was performed at day 7 of culture by repeated vacuum aspiration and reperfusion of the axon chamber until axons were cut effectively without disturbing cell bodies in the soma compartment.
To test if ASO SJ+94 could rescue axonal regrowth after TDP-43 depletion and injury, the patient's motor neurons were cultured in microfluidic devices that permitted axon growth into a chamber distinct from the neuronal cell bodies (FIG. 91A). Neurons cultured for 7 days in the soma compartment of the device extended axons through the microchannels into the axon chamber. Neurons were treated with siTARDBP and ASO SJ+94 before severing axons without disturbing cell bodies in the soma compartment. The axon extension was then measured from the microchannel to assess regrowth after injury (FIG. 91B, FIG. 91D).

hMNs = experiment: neurite outgrowth, Sholl analysis of hMNs; details: 10 μM; STMN2+/+ and STMN2−/− hMNs
Protocol: Given the reported role of STMN2 in regulating axonal growth by promoting the dynamic instability of microtubules (77), phenotypic assays were carried out characterizing neurite outgrowth in the STMN2−/− hMNs. After 7 days in culture, sorted hMNs were fixed and stained for β-III-tubulin to label the neuronal processes (FIG. 4E).
Individual Tuj1-positive neurons used for Sholl analyses were randomly selected and imaged using a Nikon Eclipse TE300 with a 40× objective. The neurites were traced using the ImageJ (NIH) plugin NeuronJ (78), and Sholl analysis was performed using the Sholl tool of Fiji (96), quantifying the number of intersections at intervals from the cell body. Statistical analysis was performed by comparing the number of intersections of KO clones with the parental WT line for each 10 μm interval using Prism 6 (Graph Pad, La Jolla, CA, USA). Significance was assessed by a standard Student's t-test, with a p value of p<0.05 considered as significant.

STMN2 RNA = experiment: qRT-PCR of full-length STMN2 after proteasome inhibition with MG-132 in patient's motor neurons; details: patient's motor neurons; MG-132 (1 uM)
Source text: It was established that ASO (SJ+94) and ASO (SJ-1) suppressed cryptic splicing of STMN2 and restored full length STMN2 RNA in the patient's motor neurons when there is a reduction in nuclear TDP-43. […] Post-mortem tissue studies have shown that TDP-43 mis-localization and its aggregation in cytoplasm is a hallmark of sporadic ALS. Several groups have reported cytoplasmic aggregation of TDP-43 akin to that observed in post-mortem tissue of sporadic ALS patients occurs in response to pharmacological inhibition of the proteasome (1, 4).

STMN2 = STMN2 multiplexed qPCR assay in neurons after TDP-43 reduction by ASO or siRNA; details: compared with SCR ASO
Source text: FIGS. 17A-17C show RNA can be readily collected from CSF-derived exosomes and then converted into cDNA to assay for full and cryptic STMN2 transcripts as well as control RNAs for normalization (FIG. 17A). […] STMN2 transcripts are normalized to the house keeping ribosomal subunit RNA18S5. TDP-43 levels were reduced in cultured human neurons using either an antisense oligonucleotide (ASO) to deplete cells of TDP-43 or an siRNAs to induce TDP-43 knockdown. […] Using the validated multiplexed qPCR assay, next RNA was isolated from CSF-derived exosomes using 300 ul patient samples to determine the levels of cryptic STMN2 (n=7 healthy controls, n=2 disease mimics and n=9 ALS patients). […] Note that even in this modest set of samples that the increase in cryptic exon expression in ALS patients was highly significant (P<0.005). […] Finally, there is an interesting “texture” to the patient data with some patients showing high levels of expression and others more normal levels. It is hypothesized that patients with lower levels may either be earlier in their disease or have non-TDP-43 disease.

CC(C)C[C@H](NC(=O)[C@H](Cc1ccccc1)NC(=O)c1cnccn1)B(O)O [Bortezomib]
transcripts containing the STMN2 cryptic exon (PCR assay) (STMN2 cryptic exon): presence of transcripts containing the STMN2 cryptic exon

SJ+101: antisense oligonucleotide TTCACATTCATTTCTTCTTAG, fully modified with MOE sugars and phosphorothioate linkages (all 2'-MOE, all phosphorothioate, methylation of C not given here)
STMN2 in TDP-43 depleted neurons (STMN2 transcript): restored
cry STMN2 in TDP-43 depleted neurons (STMN2 transcript): reduced
STMN2 protein levels (STMN2 protein): increase is significant
neurite outgrowth deficits following TDP-43 depletion (patient's motor neurons): rescued

C[C@@H](N)[C@H]1CC[C@H](C(=O)Nc2ccncc2)CC1 [Y-27632]
neurite outgrowth (Sholl analysis) (hMNs): enhancing the outgrowth of the STMN^+/+ line but not the STMN^−/− line

SJ-1: antisense oligonucleotide AGGTCTTCTGCCGAGTC C, fully modified with MOE sugars and phosphorothioate linkages (antisense AGGTCTTCTGCCGAGTCC; all 2'-MOE, all phosphorothioate, methylation of C not given here)
STMN2 in TDP-43 depleted neurons (STMN2 transcript): restored
cry STMN2 in TDP-43 depleted neurons (STMN2 transcript): reduced
cryptic STMN2 RNA levels (cryptic splicing) (STMN2 transcript): suppressing cryptic splicing
full-length STMN2 RNA levels (STMN2 transcript): restoring full length STMN2 RNA
full-length STMN2 RNA levels, higher than non-targeting control ASO (NTC) (STMN2 RNA): 30%
STMN2 protein levels (STMN2 protein): increase is significant
neurite outgrowth deficits following TDP-43 depletion (patient's motor neurons): rescued
axon extension from the microchannel (regrowth after injury), mean values (patient's motor neurons): 243 um
axonal regrowth after injury relative to the non-targeting control ASO (patient's motor neurons): significantly increased regrowth

TDP-43 ASO: antisense oligonucleotide to deplete cells of TDP-43, AAGGCTTCATATTGTACTTT (chemistry not given here)
relative expression of STMN2 (Exons 3-4) (STMN2): STMN2 reduction
relative expression of cryptic STMN2 (STMN2): cryptic exon induction

SJ+94: antisense oligonucleotide CATTTCTTCTTAGGCAGGCT, fully modified with MOE sugars and phosphorothioate linkages (all 2'-MOE, all phosphorothioate, methylation of C not given here)
STMN2 in TDP-43 depleted neurons (STMN2 transcript): restored
cry STMN2 in TDP-43 depleted neurons (STMN2 transcript): reduced
cryptic STMN2 RNA levels (cryptic splicing) (STMN2 transcript): suppress cryptic splicing
full-length STMN2 RNA levels (STMN2 transcript): restore full length STMN2 RNA
full length STMN2 RNA levels compared to non-targeting control ASO (NTC) (STMN2 RNA): significantly higher levels of full length STMN2 RNA
STMN2 protein levels (STMN2 protein): increase is significant
neurite outgrowth deficits following TDP-43 depletion (patient's motor neurons): rescued
axonal regrowth after injury relative to the non-targeting control ASO (patient's motor neurons): significantly increased regrowth

NTC: non-targeting control ASO CCTATAGGACTATCCAGGAA (chemistry not given here) [reference compound]
axon extension from the microchannel (regrowth after injury), mean values (patient's motor neurons): 176 um
